Series [1] is described as follows: Total clearance in monkey at 0.3 mg/kg, iv. The format is ADME, organism-based, Macaca mulatta. The settings on record: rhesus monkey, in vivo.
A further series deals with T1, CYP2B6 (Homo sapiens, UniProt P20813).
T1 sequence (P20813 whole entry): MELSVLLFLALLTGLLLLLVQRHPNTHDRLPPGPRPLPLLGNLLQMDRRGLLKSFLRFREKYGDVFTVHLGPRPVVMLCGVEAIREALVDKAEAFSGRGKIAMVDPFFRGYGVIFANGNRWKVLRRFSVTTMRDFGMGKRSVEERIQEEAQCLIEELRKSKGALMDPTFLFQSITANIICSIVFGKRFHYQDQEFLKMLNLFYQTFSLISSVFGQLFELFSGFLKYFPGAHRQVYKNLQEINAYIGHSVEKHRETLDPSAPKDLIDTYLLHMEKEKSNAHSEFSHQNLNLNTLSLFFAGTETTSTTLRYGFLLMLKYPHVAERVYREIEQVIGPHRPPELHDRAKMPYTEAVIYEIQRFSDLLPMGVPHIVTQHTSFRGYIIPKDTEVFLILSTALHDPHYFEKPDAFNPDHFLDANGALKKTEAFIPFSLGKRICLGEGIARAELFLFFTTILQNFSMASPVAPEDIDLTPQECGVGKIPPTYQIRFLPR
Briefly: Inhibition of CYP2B6 (unknown origin). The format is ADME.

The target of series [2] is T2, Extracellular calcium-sensing receptor (Rattus norvegicus, UniProt P48442).
T2 sequence (P48442 whole entry): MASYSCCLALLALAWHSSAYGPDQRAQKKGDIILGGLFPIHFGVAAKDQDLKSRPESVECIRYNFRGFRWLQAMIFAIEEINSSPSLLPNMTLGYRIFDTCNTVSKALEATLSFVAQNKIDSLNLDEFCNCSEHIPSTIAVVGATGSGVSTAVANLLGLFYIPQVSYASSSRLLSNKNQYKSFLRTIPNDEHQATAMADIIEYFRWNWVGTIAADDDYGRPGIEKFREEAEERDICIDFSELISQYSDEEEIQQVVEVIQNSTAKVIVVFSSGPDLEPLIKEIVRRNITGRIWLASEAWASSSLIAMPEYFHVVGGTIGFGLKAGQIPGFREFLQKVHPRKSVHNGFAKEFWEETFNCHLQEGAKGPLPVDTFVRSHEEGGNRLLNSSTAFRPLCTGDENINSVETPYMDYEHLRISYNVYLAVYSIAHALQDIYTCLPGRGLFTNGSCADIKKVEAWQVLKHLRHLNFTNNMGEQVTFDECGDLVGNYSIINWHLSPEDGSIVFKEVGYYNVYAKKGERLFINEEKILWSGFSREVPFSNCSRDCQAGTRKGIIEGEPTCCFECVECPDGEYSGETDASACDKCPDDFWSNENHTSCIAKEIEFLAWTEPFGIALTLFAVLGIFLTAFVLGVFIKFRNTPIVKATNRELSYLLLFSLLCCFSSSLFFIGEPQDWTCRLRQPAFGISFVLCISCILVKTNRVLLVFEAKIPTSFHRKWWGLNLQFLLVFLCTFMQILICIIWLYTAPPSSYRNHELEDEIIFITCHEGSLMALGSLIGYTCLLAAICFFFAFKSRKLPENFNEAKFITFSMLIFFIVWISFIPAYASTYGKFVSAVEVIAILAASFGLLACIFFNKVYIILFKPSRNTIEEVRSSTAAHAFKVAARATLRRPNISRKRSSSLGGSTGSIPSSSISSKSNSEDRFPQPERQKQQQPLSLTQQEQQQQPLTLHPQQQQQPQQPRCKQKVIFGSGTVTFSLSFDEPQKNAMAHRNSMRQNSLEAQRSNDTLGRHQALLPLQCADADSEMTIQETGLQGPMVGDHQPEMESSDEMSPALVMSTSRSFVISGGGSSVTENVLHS
Briefly: Agonist activity at CaSR in rat parathyroid cells assessed as inhibition of PTH (1 to 84 residues) production in presence of Cacl2 by ELISA. The format is functional, cell-based. On the technique in general: In an ELISA, binding on a coated surface is turned into a signal by an enzyme label.

Another series deals with T3, CYP1A2 (Homo sapiens, UniProt P05177).
T3 sequence (P05177 whole entry): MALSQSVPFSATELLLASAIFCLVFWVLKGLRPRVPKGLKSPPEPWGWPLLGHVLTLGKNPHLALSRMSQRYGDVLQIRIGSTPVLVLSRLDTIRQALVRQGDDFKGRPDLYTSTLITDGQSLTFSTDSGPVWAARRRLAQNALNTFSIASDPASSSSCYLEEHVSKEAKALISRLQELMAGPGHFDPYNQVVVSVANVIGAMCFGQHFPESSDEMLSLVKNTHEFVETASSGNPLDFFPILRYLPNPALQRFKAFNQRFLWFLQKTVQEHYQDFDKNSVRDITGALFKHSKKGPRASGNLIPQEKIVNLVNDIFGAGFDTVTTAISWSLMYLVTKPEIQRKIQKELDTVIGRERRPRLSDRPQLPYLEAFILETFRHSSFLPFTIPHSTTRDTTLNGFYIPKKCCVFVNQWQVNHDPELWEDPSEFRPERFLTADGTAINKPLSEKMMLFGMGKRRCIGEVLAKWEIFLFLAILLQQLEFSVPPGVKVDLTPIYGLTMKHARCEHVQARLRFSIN
The series is described as follows: Inhibition of CYP1A2 (unknown origin). The format is ADME.

Some results are limits rather than exact numbers.

The results in this text go back to ChEMBL document CHEMBL4118154, “Discovery of evocalcet, a next-generation calcium-sensing receptor agonist for the treatment of hyperparathyroidism” (Bioorg Med Chem Lett, 2018).

Usually clearance stands for the volume of plasma or blood freed of the substance per unit of time. In general, IC50 refers to the concentration at which inhibition is half-maximal.

In series [1], `C[C@@H](N[C@H]1CCN(c2ccc(CC(=O)O)cc2)C1)c1cccc2ccccc12.Cl.Cl` had a clearance of 5.37 mL/min/kg. The IC50 against CYP2B6 is > 50 µM; in series [2], 0.0308 µM; on CYP1A2 it was > 50 µM.
